Holding throughout (format): biochemical
The target of experiment [1] is human TYK2 catalytic kinase (JH1) domain (Homo sapiens (Human), UniProt P29597). Description: ADP-Glo Kinase Assay, recombinant TYK2 catalytic kinase (JH1) domain. The settings on record: recombinant JH1 domain 2 nM, 10 μM ATP, JAK3-974 peptide, mean, read-out: TYK2 biochem IC50 (nM) Mean. A digest of the protocol:
(§1)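 Compounds were titrated in 11 points of 3-fold dilution starting at 10 μM or 1 μM. Enzyme (JAK1 4 nM, JAK2 0.2 nM, JAK3 0.3 nM, TYK2 2 nM) and 50 μM peptide reacted for 100 minutes, followed by ADP-to-luminescence detection; IC50 by 4-parameter fit.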

The target of experiment [2] is human JAK2 catalytic kinase (JH1) domain (Homo sapiens (Human), UniProt O60674). Put plainly: ADP-Glo Kinase Assay, recombinant JAK2 catalytic kinase (JH1) domain. The settings on record: recombinant JH1 domain 0.2 nM, 15 μM ATP, JAK3-974 peptide, mean, read-out: JAK2 biochem IC50 (nM) Mean. The method in brief:
as §1

In experiment [3] the target is human JAK1 catalytic kinase (JH1) domain (Homo sapiens (Human), UniProt P23458). Description: ADP-Glo Kinase Assay, recombinant JAK1 catalytic kinase (JH1) domain. The note with it: recombinant JH1 domain 4 nM, 35 μM ATP, JAK3-342 peptide, mean, read-out: JAK1 biochem IC50 (nM) Mean. The method in brief:
as §1

For experiment [4], the target named is human JAK3 catalytic kinase (JH1) domain (Homo sapiens (Human), UniProt P52333). Put plainly: ADP-Glo Kinase Assay, recombinant JAK3 catalytic kinase (JH1) domain. The settings on record: recombinant JH1 domain 0.3 nM, 4 μM ATP, JAK3-974 peptide, mean, read-out: JAK3 biochem IC50 (nM) Mean. A digest of the protocol: as §1

This is an account of results in patent US20240360157A1, “TYK2 INHIBITORS” (BIOGEN MA INC., priority 2021, published 2024).

Structures can show the parent of a compound that is named as a salt. Where only a bound is given, the exact number is not on record here.

Sequence of human TYK2 catalytic kinase (JH1) domain (P29597 897-1176): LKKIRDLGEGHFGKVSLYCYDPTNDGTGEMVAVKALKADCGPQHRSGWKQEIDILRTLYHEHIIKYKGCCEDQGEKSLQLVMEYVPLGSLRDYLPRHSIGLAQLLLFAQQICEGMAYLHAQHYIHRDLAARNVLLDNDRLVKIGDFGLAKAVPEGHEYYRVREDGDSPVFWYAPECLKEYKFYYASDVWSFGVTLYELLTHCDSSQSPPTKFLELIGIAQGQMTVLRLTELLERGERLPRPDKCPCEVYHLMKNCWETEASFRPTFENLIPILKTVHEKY
Sequence of human JAK1 catalytic kinase (JH1) domain (P23458 875-1153): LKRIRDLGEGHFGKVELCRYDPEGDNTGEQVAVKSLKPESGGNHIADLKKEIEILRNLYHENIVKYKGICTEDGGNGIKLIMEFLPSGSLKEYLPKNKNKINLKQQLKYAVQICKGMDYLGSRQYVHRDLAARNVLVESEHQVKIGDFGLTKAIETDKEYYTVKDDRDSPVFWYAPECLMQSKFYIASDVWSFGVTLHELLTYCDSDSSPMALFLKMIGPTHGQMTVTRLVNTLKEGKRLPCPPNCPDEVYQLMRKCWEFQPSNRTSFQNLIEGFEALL
Sequence of human JAK3 catalytic kinase (JH1) domain (P52333 822-1111): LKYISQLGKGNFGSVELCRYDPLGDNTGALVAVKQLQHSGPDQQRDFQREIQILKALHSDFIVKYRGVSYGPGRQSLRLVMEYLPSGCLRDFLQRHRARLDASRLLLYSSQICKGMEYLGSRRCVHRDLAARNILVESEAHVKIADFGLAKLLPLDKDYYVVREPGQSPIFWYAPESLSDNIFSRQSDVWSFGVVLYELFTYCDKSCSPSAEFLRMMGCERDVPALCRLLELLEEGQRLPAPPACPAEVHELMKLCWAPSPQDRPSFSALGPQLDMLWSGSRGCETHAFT
Sequence of human JAK2 catalytic kinase (JH1) domain (O60674 849-1124): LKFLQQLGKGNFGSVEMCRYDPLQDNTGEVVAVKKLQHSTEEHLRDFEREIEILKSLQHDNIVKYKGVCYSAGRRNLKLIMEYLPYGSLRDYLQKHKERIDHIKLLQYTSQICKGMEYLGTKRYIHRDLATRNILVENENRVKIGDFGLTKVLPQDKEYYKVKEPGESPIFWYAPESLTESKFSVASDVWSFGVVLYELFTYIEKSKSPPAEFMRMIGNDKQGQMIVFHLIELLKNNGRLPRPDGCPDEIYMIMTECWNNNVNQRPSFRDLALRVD

In the case of `O=C([C@H]1C[C@@H]1F)N1C2CCC1CN(c1ncnn3cc(-c4cnn(C(F)F)c4)cc13)C2` (racemic) [Example 54, Rac-(3-(6-(1-(difluoromethyl)-1H-pyrazol-4-yl)pyrrolo[2,1-f][1,2,4]triazin-4-yl)-3,8-diazabicyclo[3.2.1]octan-8-yl)((1R,2S)-2-fluorocyclopropyl)methanone], the IC50 in experiment [1] was 37.1 nM; in experiment [2], 1320 nM; in experiment [3] it was 645 nM; in experiment [4] it was 4230 nM.

With `N#Cc1cccc(-c2cc3c(N4CC5CCC(C4)N5C(=O)C4CC4)ncnn3c2)c1` [Example 176], the concentration for half-maximal inhibition (IC50) in experiment [1] was determined as 830 nM; in experiment [2], 10000 nM; in experiment [3], 3560 nM; in experiment [4], 9890 nM.

Take `Cn1cc(-c2cc3c(N4CC5CCC(C4)N5C(=O)[C@@H]4C[C@H]4F)ncnn3c2)cc(F)c1=O` [Example 167]: the IC50 in experiment [1] was determined as 95 nM; in experiment [2] it was 1740 nM; in experiment [3] it was 2210 nM; in experiment [4], 10000 nM.

Turning to `Cc1c(-c2cc3c(N4CC5CCC(C4)N5C(=O)C4CC4)ncnn3c2)cnn1C` [Example 168], the IC50 is 317 nM in experiment [1], 7850 nM in experiment [2], 5470 nM in experiment [3] and 7690 nM in experiment [4].

Turning to `COc1nccc(-c2cc3c(N4CC5CCC(C4)N5C(=O)[C@@H]4C[C@H]4F)ccnn3c2)c1F` [Example 26, (3-(6-(3-fluoro-2-methoxypyridin-4-yl)pyrrolo[1,2-b]pyridazin-4-yl)-3,8-diazabicyclo[3.2.1]octan-8-yl)((1S,2R)-2-fluorocyclopropyl)methanone], the IC50 in experiment [1] is 9.8 nM; in experiment [2], 145 nM; in experiment [3] it was 292 nM; in experiment [4] it was 1190 nM.

Turning to `Cn1cc(-c2cc3c(N4CC5CCC(C4)N5C(=O)C4CC4)ncnn3c2)cn1` [Example 146, cyclopropyl(3-(6-(1-methyl-1H-pyrazol-4-yl)pyrrolo[2,1-f][1,2,4]triazin-4-yl)-3,8-diazabicyclo[3.2.1]octan-8-yl)methanone], the IC50 in experiment [1] worked out at 166 nM; in experiment [2] it was 5850 nM; in experiment [3], 1880 nM; in experiment [4] it was 3240 nM.

On to `N#CC1(C(=O)N2C3CCC2CN(c2ncnn4cc(-c5cnn(C(F)F)c5)cc24)C3)CC1` [Example 30, 1-(3-(6-(1-(difluoromethyl)-1H-pyrazol-4-yl)pyrrolo[2,1-f][1,2,4]triazin-4-yl)-3,8-diazabicyclo[3.2.1]octane-8-carbonyl)cyclopropane-1-carbonitrile trifluoroacetate], for which the IC50 in experiment [1] came out at 90 nM; in experiment [2] it was 938 nM; in experiment [3], 191 nM; in experiment [4], 820 nM.

Regarding `O=C([C@@H]1C[C@H]1F)N1C2CCC1CN(c1ccnc3[nH]c(C4CCC4)nc13)C2` [Example 209, (3-(2-cyclobutyl-3H-imidazo[4,5-b]pyridin-7-yl)-3,8-diazabicyclo[3.2.1]octan-8-yl)((1S,2R)-2-fluorocyclopropyl)methanone], the IC50 in experiment [1] is 358 nM; in experiment [2], 8500 nM; in experiment [3] it was 1710 nM; in experiment [4], 8590 nM.

`N#CC1CC1c1nc2c(N3CC4CCC(C3)N4C(=O)[C@@H]3C[C@H]3F)ccnc2[nH]1` (stereo partly drawn) [Example 215, 2-(7-(8-((1S,2R)-2-fluorocyclopropane-1-carbonyl)-3,8-diazabicyclo[3.2.1]octan-3-yl)-3H-imidazo[4,5-b]pyridin-2-yl)cyclopropane-1-carbonitrile]: the concentration for half-maximal inhibition (IC50) in experiment [1] is 484 nM; in experiment [2], 5350 nM; in experiment [3], 2180 nM; in experiment [4] it was 10000 nM.

Turning to `COc1cc(-c2cn3nccc(N4CC5CCC(C4)N5C(=O)[C@@H]4C[C@H]4F)c3n2)ccn1` [Example 248, ((1S,2R)-2-fluorocyclopropyl)(3-(2-(2-methoxypyridin-4-yl)imidazo[1,2-b]pyridazin-8-yl)-3,8-diazabicyclo[3.2.1]octan-8-yl)methanone], the IC50 came out at 9.5 nM in experiment [1], 48 nM in experiment [2], 23 nM in experiment [3] and 515 nM in experiment [4].

With `Cc1cnc(-c2cc3c(N4CC5CCC(C4)N5C(=O)[C@@H]4C[C@H]4F)ccnn3c2)cn1` [Example 131, ((1S,2R)-2-fluorocyclopropyl)(3-(6-(5-methylpyrazin-2-yl)pyrrolo[1,2-b]pyridazin-4-yl)-3,8-diazabicyclo[3.2.1]octan-8-yl)methanone], the IC50 turned out to be 50.7 nM in experiment [1], 672 nM in experiment [2], 562 nM in experiment [3] and 5470 nM in experiment [4].

For `Cn1cc(-c2cc3c(N4CC5CCC(C4)N5C(=O)C4CC4)ncnn3c2)c(F)n1` [Example 145], the 50% inhibitory concentration (IC50) came to 202 nM in experiment [1], 6020 nM in experiment [2], 2360 nM in experiment [3] and 6520 nM in experiment [4].

Regarding `O=C([C@@H]1C[C@H]1F)N1C2CCC1CN(c1ncnc3[nH]c(-c4ccnnc4)cc13)C2` [Example 234, ((1S,2R)-2-fluorocyclopropyl)(3-(6-(pyridazin-4-yl)-7H-pyrrolo[2,3-d]pyrimidin-4-yl)-3,8-diazabicyclo[3.2.1]octan-8-yl)methanone], the 50% inhibitory concentration (IC50) in experiment [1] came to 28.6 nM; in experiment [2], 598 nM; in experiment [3], 388 nM; in experiment [4], 3200 nM.

As for `Cn1cc(-c2cc3c(N4CC5CCC(C4)N5C(=O)[C@@H]4C[C@H]4F)ccnn3c2)cc(F)c1=O` [Example 174], the IC50 is 6.6 nM in experiment [1], 84 nM in experiment [2], 149 nM in experiment [3] and 1600 nM in experiment [4].

For the compound `Cn1cc(-c2cc3c(N4CC5CCC(C4)N5C(=O)CC(F)(F)F)ncnn3c2)cn1` [Example 59, 3,3,3-trifluoro-1-(3-(6-(1-methyl-1H-pyrazol-4-yl)pyrrolo[2,1-f][1,2,4]triazin-4-yl)-3,8-diazabicyclo[3.2.1]octan-8-yl)propan-1-one], the IC50 in experiment [1] worked out at 652 nM; in experiment [2], 9730 nM; in experiment [3] it was 3500 nM; in experiment [4] it was 6940 nM.

For the compound `O=C([C@@H]1C[C@H]1F)N1C2CCC1CN(c1ccnc3[nH]c(-c4ccnnc4)nc13)C2` [Example 207, ((1S,2R)-2-fluorocyclopropyl)(3-(2-(pyridazin-4-yl)-3H-imidazo[4,5-b]pyridin-7-yl)-3,8-diazabicyclo[3.2.1]octan-8-yl)methanone], the IC50 was 39.6 nM in experiment [1], 150 nM in experiment [2], 126 nM in experiment [3] and 2680 nM in experiment [4].

On to `O=C([C@@H]1C[C@H]1F)N1C2CCC1CN(c1ccnn3cc(-c4ccc(OC(F)F)nc4)cc13)C2` [Example 115, (3-(6-(6-(difluoromethoxy)pyridin-3-yl)pyrrolo[1,2-b]pyridazin-4-yl)-3,8-diazabicyclo[3.2.1]octan-8-yl)((1S,2R)-2-fluorocyclopropyl)methanone], for which the IC50 was determined as 6 nM in experiment [1], 82 nM in experiment [2], 105 nM in experiment [3] and 961 nM in experiment [4].

Turning to `COc1cc(-c2cc3c(N4CC5CCC(C4)N5S(=O)(=O)C4CC4)ccnn3c2)ccn1` [Example 190], the IC50 in experiment [1] is 64.4 nM; in experiment [2] it was 280 nM; in experiment [3], 324 nM; in experiment [4], 2750 nM.

With `O=C(N1C2CCC1CN(c1ncnn3cc(-c4cnn(C(F)F)c4)cc13)C2)C1(F)CC1` [Example 50, (3-(6-(1-(difluoromethyl)-1H-pyrazol-4-yl)pyrrolo[2,1-f][1,2,4]triazin-4-yl)-3,8-diazabicyclo[3.2.1]octan-8-yl)(1-fluorocyclopropyl)methanone], the IC50 was determined as 295 nM in experiment [1], 6150 nM in experiment [2], 1040 nM in experiment [3] and 2020 nM in experiment [4].

`O=C([C@H]1C[C@@H]1CO)N1C2CCC1CN(c1ncnn3cc(-c4cnn(C(F)F)c4)cc13)C2` (racemic) [Example 38, Rac-(3-(6-(1-(difluoromethyl)-1H-pyrazol-4-yl)pyrrolo[2,1-f][1,2,4]triazin-4-yl)-3,8-diazabicyclo[3.2.1]octan-8-yl)((1S,2S)-2-(hydroxymethyl)cyclopropyl)methanone]: the IC50 in experiment [1] is 326 nM; in experiment [2], 8260 nM; in experiment [3], 1640 nM; in experiment [4] it was no less than 10000 nM.

For `COc1cc(-c2cn3ncc(F)c(N4CC5CCC(C4)N5C(=O)[C@@H]4C[C@H]4F)c3n2)ccn1` (stereo in doubt) [Example 142, (3-(7-fluoro-2-(2-methoxypyridin-4-yl)imidazo[1,2-b]pyridazin-8-yl)-3,8-diazabicyclo[3.2.1]octan-8-yl)((1S,2R)-2-fluorocyclopropyl)methanone], the IC50 was 19.6 nM in experiment [1], 270 nM in experiment [2], 46 nM in experiment [3] and 514 nM in experiment [4].

As for `O=C(C1CC1)N1C2CCC1CN(c1ncnn3cc(-c4cnn(C5CCOCC5)c4)cc13)C2` [Example 153], the half-maximal inhibitory concentration (IC50) in experiment [1] was determined as 99.2 nM; in experiment [2] it was 1520 nM; in experiment [3], 1280 nM; in experiment [4] it was 1900 nM.
